Entries after “also recorded” stand apart in the source; their conditions may differ.
Tests used:
[1] = system: PLS/HCC high risk genes in HBV-infected HepG2-NTCP cells; assay: Epigenetic inhibitors: 32-gene PLS/HCC risk signature in HBV-infected HepG2-NTCP cells; assay type: cell-based; details: only in HBV infected cells; C646 10 μM
Experimental: (§1) HBV infection was assessed at day 10 post-infection by qRT-PCR quantification of HBV pregenomic RNA (pgRNA) as described in (Verrier et al., Hepatology, 2015, 63: 35-48).
(§2) Transcriptional analyses. Ten days after HCV Jc1 and HBV infection or ethanol exposure, cultures were lysed using TRI-reagent (MRC) and RNA purified using the Directzol mini kit (Zymo Research). Gene expression profiling was performed using 250-500 ng total RNA by using either NCOUNTER Digital Analyzer system (NanoString) or high throughput qRT-PCR Biomark HD (Baker, Nature Meth., 2012, 9: 541-544) […]. Induction or suppression of HCC risk signature was determined by Gene Set Enrichment Analysis (GSEA), implemented in GenePattern genomic analysis toolkits.

[2] = system: HCC high-risk genes in human fibrotic liver tissue; assay: Organotypic ex vivo culture of surgically resected human fibrotic liver tissue slices, PLS/HCC risk signature by GSEA; assay type: cell-based; details: erlotinib 5 μM, pioglitazone 10 μM
Experimental: Liver Slices. Fresh liver tissue sections (300 μm-thick) were prepared from surgically resected fibrotic livers from HCC patients using Krumdieck Tissue Slicer MD6000 (Alabama Research and Development, Munford, Ala., USA).
Transcriptional Analyses. Liver cells were lysed in TRI-reagent (Molecular Research Center; Cincinnati, Ohio, USA), and RNA was purified using Direct-zol RNA MiniPrep (Zymo Research, Irvine, Calif., USA) according to manufacturer's instructions. RNA quantity and RNA quality were assessed using NanoDrop (Thermo Scientific, Waltham, Mass., USA) and Bioanalyzer 2100 ([…]) with a quality cut-off of RNA Integrity Number >8. […] HCC high risk gene expression was analyzed by qRT-PCR using specific TaqMan Gene Expression Assays (Life Technologies, Carlsbad, Calif., USA) or the ANXA3 and GPX2 primer sets previously described (Pan et al., Stem Cells, 2015, 33: 354-366 and Brault et al., Gut, 2014, 65: 44-54, respectively). The expression of GAPDH mRNA was analyzed as a reference gene using a specific TaqMan Gene Expression Assay (Life Technologies, Carlsbad, Calif., USA) or the RT2 qPCR Primer Assay (Qiagen, Hilden, Germany). Relative gene expression level was calculated by the ΔΔCt method as previously described (Schmittgen et al., Nat. Protoc., 2008, 3: 1101-1108). […]

HCV Jc1 = assay: HCV viral load in HCV Jc1-infected Huh7.5.1dif cells (qRT-PCR of intracellular HCV RNA); assay type: cell-based; details: for effect on HCV viral load: HCV-infected Huh7.5.1dif cells, at the concentrations that suppress the signature
Experimental: HCV Infection of Huh7.5.1^dif cells. Cell culture-derived HCVcc Jc1 (genotype 2a/2a) (Pietschmann et al., PNAS USA, 2006, 103: 7408-7413) were generated in Huh7.5.1 cells as previously described (Wakita et al., Nat. Med., 2005, 11: 791-796). HCV Jc1E2^FLAG was purified using anti-FLAG M2 affinity gel (Sigma-Aldrich, St.Louis, Mo., USA) as described (Merz et al., J. Biol. Chem., 2011, 286: 3018-3032). HCVcc infectivity was determined by calculating the 50% tissue culture infectious doses (TCID50) as previously described (Lindenbach et al., Science, 2005, 309: 623-626). Huh7.5.1^dif cells were infected with HCV Jc1 or HCV Jc1E2^FLAG. Cell culture supernatants from mock-electroporated cells or 100 μg/mL of FLAG peptide were used for control experiments. HCV infection was assessed by qRT-PCR of intracellular HCV RNA (Xiao et al., PLoS Pathog., 2014, 10: e1004128) as well as immunostaining using HCV E2-specific AP33 antibody as previously described (Krieger et al., Hepatology, 2010, 51: 1144-1157).

[3] = system: HCC risk signature in HCV Jc1-infected Huh7.5.1^dif cells; assay: HCC risk signature in HCV Jc1-infected Huh7.5.1dif cells after antiviral or EGFR/MAPK pathway inhibitor treatment; assay type: cell-based, human; details: three days treatment from day 7 post-infection
Experimental: HCV Infection of Huh7.5.1^dif cells. […] Huh7.5.1^dif cells were infected with HCV Jc1 or HCV Jc1E2^FLAG. […] HCV infection was assessed by qRT-PCR of intracellular HCV RNA (Xiao et al., PLoS Pathog., 2014, 10: e1004128) as well as immunostaining using HCV E2-specific AP33 antibody as previously described (Krieger et al., Hepatology, 2010, 51: 1144-1157).
Transcriptional Analyses. Liver cells were lysed in TRI-reagent (Molecular Research Center; Cincinnati, Ohio, USA), and RNA was purified using Direct-zol RNA MiniPrep (Zymo Research, Irvine, Calif., USA) according to manufacturer's instructions. RNA quantity and RNA quality were assessed using NanoDrop (Thermo Scientific, Waltham, Mass., USA) and Bioanalyzer 2100 (IIlumina, San Diego, Calif., USA) with a quality cut-off of RNA Integrity Number >8. […] Gene expression profiling was performed using 250-500 ng total RNA by using either NCOUNTER Digital Analyzer system (NanoString) or the HumanHT-12 beadarray (Illumina, San Diego, Calif., USA). HCC high risk gene expression was analyzed by qRT-PCR using specific TaqMan Gene Expression Assays (Life Technologies, Carlsbad, Calif., USA) or the ANXA3 and GPX2 primer sets previously described (Pan et al., Stem Cells, 2015, 33: 354-366 and Brault et al., Gut, 2014, 65: 44-54, respectively). The expression of GAPDH mRNA was analyzed as a reference gene using a specific TaqMan Gene Expression Assay (Life Technologies, Carlsbad, Calif., USA) or the RT2 qPCR Primer Assay (Qiagen, Hilden, Germany). Relative gene expression level was calculated by the ΔΔCt method as previously described (Schmittgen et al., Nat. Protoc., 2008, 3: 1101-1108).
Bioinformatics. Induction or suppression of HCC risk signature in HumanHT-12 beadarray (Illumina, San Diego, Calif., USA) data was determined as previously reported by using Nearest Template Prediction algorithm and Gene Set Enrichment Analysis (GSEA), implemented in GenePattern genomic analysis toolkits (Subramanian et al., PNAS USA, 2005, 102: 15545-15550; Hoshida, PLoS One, 2010, 5: e15543; Reich et al., Nat. Genet., 2006, 38: 500-501). Molecular pathway deregulations were determined in Molecular Signature Database (MSigDB, ver.4.0) (Liberzon et al., Bioinformatics, 2011, 27: 1739-1740) using GSEA (Subramanian et al., PNAS USA, 2005, 102: 15545-15550).

ERK1/2 = assay: Proteome Profiler Human Phospho-kinase Array in HCV-infected liver cells; assay type: cell-based; details: low inhibitor concentrations
Experimental: Proteomic Analyses. For proteomic analyses, Huh7.5.1^dif cells that had undergone DMSO-mediated differentiation, were infected with HCV Jc1E2^FLAG (TCID50=10^7/mL) as described above. On day 7, receptor tyrosine kinase (RTK) phosphorylation was assessed in cell lysates using the Human Phospho-RTK Array Kit as previously described (Lupberger et al., Nat. Med., 2011, 17: 589-595; and Zona et al., Cell Host Microbe, 2013, 13: 302-313). The effect of MAPK inhibitors on signaling was confirmed using the Proteome Profiler Human Phospho-kinase Array according to manufacturer's instructions (R&D Systems). Amounts of phospho-proteins were assessed using a horseradish peroxidase-conjugated pan-phospho-tyrosine-specific antibody (R&D Systems, Minneapolis, Minn., USA) followed by chemiluminescence detection (GE Healthcare, Cleveland, Ohio, USA) according to manufacturer's instructions. The relative dot-blot density of the phosphorylated proteins in HCV Jc1E2^FLAG infected samples compared to non-infected controls was quantified using Image J software (NIH) by elliptical selection of individual dots and measuring standard deviation and integrated density.

[4] = system: PLS/HCC high risk genes in HCV-infected or ethanol exposed Huh7.5.1^dif cells or HBV-infected HepG2-NTCP cells; assay: Epigenetic inhibitors: 32-gene PLS/HCC risk signature in infected or ethanol-treated liver cells; assay type: cell-based, human; details: iBET 0.05 μM, WDR5-0103 100 μM
Experimental: HCV infection was assessed at day 10 by qRT-PCR of intracellular RNA as described (Xiao et al., PLoS pathogens. 2014, 10(5): e1004128).
as §1
Fresh medium containing ethanol and antibodies was replenished daily (Ye et al., Drug Alcohol Depend., 2010, 112: 107-116).
as §2

Compound | effect on HCV viral load (HCV Jc1) | HCC high-risk gene expression [3] | PLS/HCC high risk gene expression [4] | also measured
CC1=NN(c2ccc(C(=O)O)cc2)C(=O)/C1=C\c1ccc(-c2cc(C)c(C)cc2[N+](=O)[O-])o1 [C646] | – | – | – | PLS/HCC high risk genes [1]: suppressed
C#Cc1cccc(Nc2ncnc3cc(OCCOC)c(OCCOC)cc23)c1 [Erlotinib] | did not modify | suppressed | – | PLS / HCC high-risk genes in ex vivo liver tissue [2]: effectively suppress; also recorded: reverted
Nc1[nH]nc2nnc(-c3c(-c4ccccc4)nn4ccccc34)cc12 [Fr180204] | absent effects | suppressed | – | ERK1/2 phosphorylation (virus-induced MAPK signaling) (ERK1/2): reduced
COC(=O)c1ccc(N2CCN(C)CC2)c(NC(=O)c2cccc(OC)c2)c1 [WDR5-0103] | – | – | suppressed | –
Interferon-alpha 2a | – | partial suppression | – | decrease of viral load (HCV Jc1; HCV Jc1-infected Huh7.5.1dif cells, three days treatment from day 7, 10 IU/mL interferon-alpha 2a or 1 nM daclatasvir + 1 μM sofosbuvir): about 100 fold; HCC low-risk gene expression [3]: restoration
iBET | – | – | suppressed | –

From patent US10988737B2, “Clinical gene signature-based human cell culture model and uses thereof” (priority 2015, dated 2021)
